Test results reported in patent EP4737473A1, “NOVEL COMPLEMENT INHIBITOR AND PREPARATION, USE AND PRODUCT THEREOF” (Liu, Xiaorong, priority 2023, dated 2025).
Positions of bridges follow the written chain, without caps; N, C: chain ends. Non-standard residues stand in square brackets, D forms with d. Residues, ends and D or L forms follow the SMILES beside them. ξ: configuration not given here. Bpa = N[C@@H](Cc1ccc(C(=O)c2ccccc2)cc1)C(=O)O; Trp(7-aza) = N[C@@H](Cc1c[nH]c2ncccc12)C(=O)O; Trp(1-Me) = Cn1cc(C[C@H](N)C(=O)O)c2ccccc21; ξTrp(5-F) = NC(Cc1c[nH]c2ccc(F)cc12)C(=O)O; 2Nal = N[C@@H](Cc1ccc2ccccc2c1)C(=O)O; Api = NC1(C(=O)O)CCNCC1; Abu = CC[C@H](N)C(=O)O; Aib = CC(C)(N)C(=O)O

Tests used:
[1] = tested on: classical pathway complement; experiment: Classical pathway complement inhibition assay (ELISA, human plasma); assay type: biochemical; conditions: human plasma 1:40 in VBS, 15 minutes at room temperature
Protocol: The half-inhibitory concentration values of SEQ ID NO.1-6 were evaluated by the classical pathway complement inhibition assay. The association constant (Ka), dissociation constant (Kd), and equilibrium dissociation constant (KD) were determined by surface plasmon resonance (SPR) assay.
The complement inhibition assay can be performed with reference to the following steps: Evaluation was performed by an established enzyme-linked immunosorbent assay (ELISA). Under normal ambient temperature, 96-well plates were coated with 50 µL of 1% ovalbumin in PBS for 2 hours. […] After washing, complement activation (C3b/iC3b/C3d bound to immune complexes) was detected using HRP-conjugated goat α-human C3 antibody (1:1000; MP Biomedicals). The reaction was performed using HRP substrate (0.05% ABTS and 0.1% H2O2 dissolved in 0.1 M sodium citrate, pH 4.2), and the absorbance was read at 405 nm using a VICTOR multi-label plate reader (PerkinElmer, Waltham, MA). 100% complement activation was obtained in the absence of the C3 peptide inhibitor, and the absorbance data obtained at 405 nm were converted to the percentage of complement inhibition. […] Surface plasmon resonance (SPR) experiments were performed using a Biacore 3000 instrument (GE Healthcare, Piscataway Town, NJ), and the binding affinity and kinetic characteristics of the cyclic peptides were evaluated by SPR.

[2] = molecular target: T1, His-tag recombinant human C3 protein (Homo sapiens, UniProt P01024); experiment: BLI affinity assay (Bio-Layer Interferometry, Ni-NTA biosensor, ForteBio Octet); assay type: binding; set-up: purchased Sino Biological Inc; conditions: for kon: association rate constant; for koff: dissociation rate constant, read-out: kdis; for Kd: 60s association, 90s dissociation, PBS pH 8.0
From the text: The BLI affinity assay was used to verify the effects of the cyclic peptides of the disclosure and the control product.
BLI refers to Bio-Layer Interferometry. The principle is: after visible light is emitted from the spectrometer, two reflected spectra are formed at the two interfaces of the optical film layer at the end of the sensor, and an interference spectrum is formed. Any change in film thickness caused by molecular binding can be reflected by the displacement value of the interference spectrum.
Subsequently, a 90s dissociation step was performed after the 60s association phase to obtain the Kd value by fitting the curve.
The stock solution was dissolved in 15% acetonitrile, and the working solution was serially diluted with PBS at pH 8.0.

[3] = molecular target: C3 protein (Homo sapiens, UniProt P01024); experiment: MST affinity assay (microscale thermophoresis, Monolith NT.115); assay type: binding; conditions: polypeptide about 200 nM, 0.5×PBS, 15% ACN, maximum protein concentration 0.25 µM
[4] = molecular target: C3 in human plasma (human) (UniProt P01024); experiment: cell-based or functional assay
Chain of C3 in human plasma (human) (P01024 23-1663): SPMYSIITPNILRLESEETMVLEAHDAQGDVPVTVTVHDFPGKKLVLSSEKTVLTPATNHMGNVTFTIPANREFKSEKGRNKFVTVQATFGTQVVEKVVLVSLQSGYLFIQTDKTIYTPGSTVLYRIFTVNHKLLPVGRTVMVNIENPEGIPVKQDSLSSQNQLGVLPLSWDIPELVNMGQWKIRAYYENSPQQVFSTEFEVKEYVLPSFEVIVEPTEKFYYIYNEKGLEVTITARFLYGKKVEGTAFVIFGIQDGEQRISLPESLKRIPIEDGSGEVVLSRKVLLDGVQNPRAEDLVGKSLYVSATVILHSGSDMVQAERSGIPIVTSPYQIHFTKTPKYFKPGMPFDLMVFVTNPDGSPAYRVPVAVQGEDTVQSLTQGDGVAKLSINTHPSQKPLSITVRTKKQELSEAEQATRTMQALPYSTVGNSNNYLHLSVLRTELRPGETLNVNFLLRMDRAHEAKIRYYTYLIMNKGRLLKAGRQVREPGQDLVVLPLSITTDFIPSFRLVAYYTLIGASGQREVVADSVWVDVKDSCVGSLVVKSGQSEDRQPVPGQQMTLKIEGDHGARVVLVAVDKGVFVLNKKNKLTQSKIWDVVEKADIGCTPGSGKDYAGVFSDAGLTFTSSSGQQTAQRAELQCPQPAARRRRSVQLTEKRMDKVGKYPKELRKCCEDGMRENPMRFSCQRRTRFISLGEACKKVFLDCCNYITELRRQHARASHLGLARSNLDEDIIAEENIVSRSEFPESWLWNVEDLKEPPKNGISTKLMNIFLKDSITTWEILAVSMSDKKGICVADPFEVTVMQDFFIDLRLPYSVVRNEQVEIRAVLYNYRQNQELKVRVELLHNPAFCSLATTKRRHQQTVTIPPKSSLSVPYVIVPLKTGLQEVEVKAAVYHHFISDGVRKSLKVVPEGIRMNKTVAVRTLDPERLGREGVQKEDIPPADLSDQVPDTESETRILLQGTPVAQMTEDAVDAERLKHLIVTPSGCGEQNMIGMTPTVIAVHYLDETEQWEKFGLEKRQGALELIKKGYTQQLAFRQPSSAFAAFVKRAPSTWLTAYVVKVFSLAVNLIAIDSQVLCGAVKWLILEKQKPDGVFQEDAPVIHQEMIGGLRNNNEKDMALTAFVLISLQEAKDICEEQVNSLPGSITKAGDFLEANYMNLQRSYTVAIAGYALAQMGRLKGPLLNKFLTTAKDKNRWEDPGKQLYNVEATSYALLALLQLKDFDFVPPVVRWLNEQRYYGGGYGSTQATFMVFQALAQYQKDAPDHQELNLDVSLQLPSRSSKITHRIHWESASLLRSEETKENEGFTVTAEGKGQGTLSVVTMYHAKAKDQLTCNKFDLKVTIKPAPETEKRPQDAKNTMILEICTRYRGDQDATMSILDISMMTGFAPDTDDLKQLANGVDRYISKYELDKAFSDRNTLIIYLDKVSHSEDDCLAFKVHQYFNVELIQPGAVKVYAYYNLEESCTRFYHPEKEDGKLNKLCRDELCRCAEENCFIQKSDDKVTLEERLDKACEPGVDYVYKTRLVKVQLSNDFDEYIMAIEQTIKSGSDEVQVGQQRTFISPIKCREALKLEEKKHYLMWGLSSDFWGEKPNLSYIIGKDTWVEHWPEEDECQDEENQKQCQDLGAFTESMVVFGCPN

[5] = molecular target: T1, His-tag recombinant human C3 protein; experiment: BLI (ForteBio Octet), His-tag C3 on Ni-NTA biosensor, peptide in solution
Target sequence in this assay (P01024 23-1663 limits assumed): as the sequence (P01024 23-1663) above

[6] = molecular target: C3 protein (MST affinity assay) (Homo sapiens (Human)) (UniProt P01024); experiment: MST (Monolith NT.115), retest; fluorescently labeled peptide, C3 protein titrated
Chain of C3 protein (MST affinity assay) (Homo sapiens (Human)) (P01024 23-667 limits assumed, form in doubt, chain 1 of 2): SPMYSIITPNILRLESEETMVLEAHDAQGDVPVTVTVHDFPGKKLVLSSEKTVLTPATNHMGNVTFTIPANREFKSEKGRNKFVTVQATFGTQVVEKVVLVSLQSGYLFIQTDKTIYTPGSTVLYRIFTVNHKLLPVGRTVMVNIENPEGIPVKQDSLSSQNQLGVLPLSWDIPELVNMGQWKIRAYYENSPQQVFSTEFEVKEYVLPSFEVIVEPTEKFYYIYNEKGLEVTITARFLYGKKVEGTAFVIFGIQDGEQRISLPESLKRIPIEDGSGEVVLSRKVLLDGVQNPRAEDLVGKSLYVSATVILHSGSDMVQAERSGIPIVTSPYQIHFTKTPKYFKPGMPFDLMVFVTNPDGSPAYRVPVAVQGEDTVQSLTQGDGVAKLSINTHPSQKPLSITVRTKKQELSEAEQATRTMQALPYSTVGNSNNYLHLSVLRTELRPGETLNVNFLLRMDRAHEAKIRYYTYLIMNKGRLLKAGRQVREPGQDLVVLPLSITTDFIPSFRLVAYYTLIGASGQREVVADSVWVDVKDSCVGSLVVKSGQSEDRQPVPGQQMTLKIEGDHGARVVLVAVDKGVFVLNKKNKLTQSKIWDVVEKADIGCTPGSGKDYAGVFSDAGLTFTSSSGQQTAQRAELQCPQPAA
Chain of C3 protein (MST affinity assay) (Homo sapiens (Human)) (P01024 672-1663 limits assumed, form in doubt, chain 2 of 2): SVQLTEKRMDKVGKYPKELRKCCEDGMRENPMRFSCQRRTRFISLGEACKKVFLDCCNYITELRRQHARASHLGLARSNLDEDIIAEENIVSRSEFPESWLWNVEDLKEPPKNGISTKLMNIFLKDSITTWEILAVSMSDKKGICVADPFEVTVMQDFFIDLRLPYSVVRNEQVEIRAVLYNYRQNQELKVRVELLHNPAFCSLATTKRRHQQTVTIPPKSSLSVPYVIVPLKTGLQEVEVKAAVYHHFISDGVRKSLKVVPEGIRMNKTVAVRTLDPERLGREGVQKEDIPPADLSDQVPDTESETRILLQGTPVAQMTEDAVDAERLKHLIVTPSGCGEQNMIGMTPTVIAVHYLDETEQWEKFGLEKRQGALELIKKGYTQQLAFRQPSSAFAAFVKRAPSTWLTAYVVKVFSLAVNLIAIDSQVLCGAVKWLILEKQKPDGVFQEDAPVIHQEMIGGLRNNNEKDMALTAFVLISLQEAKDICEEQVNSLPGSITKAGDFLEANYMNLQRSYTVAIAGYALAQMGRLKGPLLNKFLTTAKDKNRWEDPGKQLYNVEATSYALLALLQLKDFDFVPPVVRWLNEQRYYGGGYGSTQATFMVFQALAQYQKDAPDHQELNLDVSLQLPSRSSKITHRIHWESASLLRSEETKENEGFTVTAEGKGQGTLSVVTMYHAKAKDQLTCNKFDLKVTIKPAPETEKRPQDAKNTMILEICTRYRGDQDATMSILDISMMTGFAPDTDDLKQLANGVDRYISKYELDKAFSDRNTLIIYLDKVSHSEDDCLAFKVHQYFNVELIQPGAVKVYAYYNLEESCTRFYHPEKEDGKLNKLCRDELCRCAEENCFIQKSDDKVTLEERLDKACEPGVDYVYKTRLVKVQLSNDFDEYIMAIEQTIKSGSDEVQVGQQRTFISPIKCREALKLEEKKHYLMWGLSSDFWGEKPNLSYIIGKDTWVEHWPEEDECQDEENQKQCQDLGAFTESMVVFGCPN

[7] = molecular target: C3 protein (MST affinity assay) (Homo sapiens (Human)) (UniProt P01024); experiment: MST (Monolith NT.115), fluorescently labeled peptide ~200 nM, C3 protein titrated from 0.25 uM

Compound | kon [2] [M⁻¹ s⁻¹] | koff [2] [s⁻¹] | Kd [2] [nM] | IC50 (µm), classical pathway complement inhibition assay (ELISA, C3b/iC3b/C3d deposition from human plasma) [4] [nM] | also measured
CC[C@H](C)[C@H](NC(C)=O)C(=O)N[C@H]1CSSC[C@@H](C(=O)N[C@H](C(N)=O)[C@@H](C)O)NC(=O)[C@H](CCCNC(=N)N)NC(=O)[C@H](Cc2c[nH]cn2)NC(=O)C(C)(C)NC(=O)CNC(=O)C(Cc2c[nH]c3ccc(F)cc23)NC(=O)[C@H](CC(=O)O)NC(=O)[C@H](CCC(N)=O)NC(=O)[C@H](Cc2c[nH]c3ncccc23)NC(=O)[C@H](C(C)C)NC1=O (some centres unmarked) [SEQ ID NO.2, Ac-ICV-AzaTrp-QD-5F-Trp-G-Aib-HRCT-NH2(C-C)] (Ac-ICV[Trp(7-aza)]QD[ξTrp(5-F)]G[Aib]HRCT-NH2; disulfide 2-12) | 393000 | 0.0179 | – | – | IC50 [1]: 920 nM
CC[C@@H]1NC(=O)[C@@H](NC(=O)[C@@H](NC(C)=O)[C@@H](C)CC)CSSC[C@@H](C(=O)N[C@H](C(N)=O)[C@@H](C)O)NC(=O)[C@H](CCCNC(=N)N)NC(=O)[C@H](Cc2c[nH]cn2)NC(=O)C(C)(C)NC(=O)CNC(=O)C(Cc2c[nH]c3ccc(F)cc23)NC(=O)[C@H](CC(=O)O)NC(=O)[C@H](CCC(N)=O)NC(=O)[C@H](Cc2ccc3ccccc3c2)NC1=O (some centres unmarked) [SEQ ID NO.5, Ac-IC-Abu- 2Nal -QD-5F-Trp -G-Aib-HRCT-NH2(C-C)] (Ac-IC[Abu][2Nal]QD[ξTrp(5-F)]G[Aib]HRCT-NH2; disulfide 2-12) | 13100 | 0.0296 | 2260 | – | –
CC[C@H](C)[C@H](NC(C)=O)C(=O)N[C@H]1CSSC[C@@H](C(=O)N[C@H](C(N)=O)[C@@H](C)O)NC(=O)[C@H](CCCNC(=N)N)NC(=O)[C@H](Cc2c[nH]cn2)NC(=O)C(C)(C)NC(=O)CNC(=O)C(Cc2c[nH]c3ccc(F)cc23)NC(=O)[C@H](CC(=O)O)NC(=O)[C@H](CCC(N)=O)NC(=O)[C@H](Cc2ccc3ccccc3c2)NC(=O)[C@H](C(C)C)NC1=O (some centres unmarked) [SEQ ID NO.3, Ac-ICV-2Nal-QD-5F-Trp-G-Aib-HRCT-NH2(C-C)] (Ac-ICV[2Nal]QD[ξTrp(5-F)]G[Aib]HRCT-NH2; disulfide 2-12) | 387000 | 0.0176 | 45.4 | – | Kd [3]: 35.4 nM
SEQ ID NO.4: Ac-IC-Abu-W(CH3)-QD-5F-Trp-G-Pip-HRCT-NH2 (C-C) (peptide) | – | – | – | 2260 | Kd [5]: 351 nM
SEQ ID NO.2: Ac-ICV-AzaTrp-QD-5F-Trp-G-Aib-HRCT-NH2 (C-C) (peptide) | – | – | – | 920 | Kd [5]: 45.4 nM; Kd [6]: 24.6 nM; Kd [7]: 114 nM
CC[C@H](C)[C@H](NC(C)=O)C(=O)N[C@H]1CSSC[C@@H](C(=O)N[C@H](C(N)=O)[C@@H](C)O)NC(=O)[C@H](CCCNC(=N)N)NC(=O)[C@H](Cc2c[nH]cn2)NC(=O)C(C)(C)NC(=O)CNC(=O)[C@H](Cc2ccc3ccccc3c2)NC(=O)[C@H](CC(=O)O)NC(=O)[C@H](CCC(N)=O)NC(=O)[C@H](Cc2cn(C)c3ccccc23)NC(=O)[C@H](C(C)C)NC1=O [SEQ ID NO.1, Ac-ICV-W(CH3)-QD-2Nal -G-Aib-HRCT-NH2(C-C)] (Ac-ICV[Trp(1-Me)]QD[2Nal]G[Aib]HRCT-NH2; disulfide 2-12) | 15400 | 0.0492 | 3190 | – | –
CC[C@@H]1NC(=O)[C@@H](NC(=O)[C@@H](NC(C)=O)[C@@H](C)CC)CSSC[C@@H](C(=O)N[C@H](C(N)=O)[C@@H](C)O)NC(=O)[C@H](CCCNC(=N)N)NC(=O)[C@H](Cc2c[nH]cn2)NC(=O)C2(CCNCC2)NC(=O)CNC(=O)C(Cc2c[nH]c3ccc(F)cc23)NC(=O)[C@H](CC(=O)O)NC(=O)[C@H](CCC(N)=O)NC(=O)[C@H](Cc2cn(C)c3ccccc23)NC1=O (some centres unmarked) [SEQ ID NO.4, Ac-IC-Abu-W(CH3)-QD-5F-Trp -G-Pip-HRCT-NH2(C-C)] (Ac-IC[Abu][Trp(1-Me)]QD[ξTrp(5-F)]G[Api]HRCT-NH2; disulfide 2-12) | 112000 | 0.0393 | – | – | IC50 [1]: 2260 nM
CC[C@H](C)[C@H](NC(C)=O)C(=O)N[C@H]1CSSC[C@@H](C(=O)N[C@H](C(N)=O)[C@@H](C)O)NC(=O)[C@H](CCCNC(=N)N)NC(=O)[C@H](Cc2c[nH]cn2)NC(=O)C(C)(C)NC(=O)CNC(=O)C(Cc2c[nH]c3ccc(F)cc23)NC(=O)[C@H](CC(=O)O)NC(=O)[C@H](CCC(N)=O)NC(=O)[C@H](Cc2ccc(C(=O)c3ccccc3)cc2)NC(=O)[C@H](Cc2ccc(O)cc2)NC1=O (stereo partly drawn) [SEQ ID NO.6, Ac-IC-Tyr-Bpa-QD-5F-Trp -G-Aib-HRCT-NH2(C-C)] (Ac-ICY[Bpa]QD[ξTrp(5-F)]G[Aib]HRCT-NH2; disulfide 2-12) | 925 | 0.0369 | 39900 | – | –
SEQ ID NO.3: Ac-ICV-2Nal-QD-5F-Trp-G-Aib-HRCT-NH2 (C-C) (peptide) | – | – | – | 1460 | –
